Reference: US20250375526A1, “IRAK DEGRADERS AND USES THEREOF” (Kymera Therapeutics, Inc., priority 2020, published 2025)

What follows are molecules tested against T1, IRAK4 (Homo sapiens, UniProt Q9NWZ3) (assay: OCI-LY10 IRAK MSD assay DC50 (IRAK4 degradation)). Settings: OCI-Ly10 cells, incubated for 4 hr, concentration of compound required to degrade 50% of protein.
T1 construct: endogenous in cells; host or cells: OCI-Ly10
T1 sequence (Q9NWZ3 1-460): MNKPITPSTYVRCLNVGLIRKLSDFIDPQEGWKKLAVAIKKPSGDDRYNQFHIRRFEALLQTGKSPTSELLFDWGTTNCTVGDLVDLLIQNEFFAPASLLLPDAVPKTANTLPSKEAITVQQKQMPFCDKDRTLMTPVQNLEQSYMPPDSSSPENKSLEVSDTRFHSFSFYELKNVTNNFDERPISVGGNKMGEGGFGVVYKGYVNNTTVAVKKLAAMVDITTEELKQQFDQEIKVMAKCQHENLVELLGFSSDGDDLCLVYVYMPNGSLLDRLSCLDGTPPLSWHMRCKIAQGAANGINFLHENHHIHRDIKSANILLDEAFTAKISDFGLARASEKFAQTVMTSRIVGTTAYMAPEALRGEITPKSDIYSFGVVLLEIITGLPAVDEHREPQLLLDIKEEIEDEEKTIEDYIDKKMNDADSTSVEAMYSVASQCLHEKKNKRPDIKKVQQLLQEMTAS
Assay type: cell-based
Method: A MSD assay is run to determine the concentration of compound required to degrade 50% of protein (DC50).
• Compounds were reconstituted to 10 mM in stock solutions. The stock solutions were diluted to 5 mM and 45 μL of each dilution was transferred to a 384 pp-plate. A 3 fold, 8-point serial dilution was performed by transferring 15 μL of compound into 30 μL DMSO using Janus. • 20 nL of each compound were added into each well of a 96-well plate (Corning3799). • OCI-Ly10 cells were seeded into the 96-well plate at 3.0*10e^5 cells/100 μL/well. • The cell plate was shaken at 720 rpm for 5 min and incubated for 4 hr. • 100 μL of cells were transferred into the 96-PCR plate and spun down at high speed for 5 mins. • The supernatant was discarded and 100 μL of RIPA lysis buffer with proteinase inhibitors was added per well. The plate was then sealed and shaken at 600 rpm and 4° C. for about 20 min. • The plate was then spun down at high speed (about 3200 g) for 30 min and then frozen in a −80° C. fridge. • A bare MSD plate (L15XA-3) was coated with 2 μg/mL of capture antibody (mouse Anti-IRAK4 antibody [2H9], ab119942) in PBS to 40 μL/well and incubated overnight at 4° C.
• The MSD coated plate was washed 3× (150 μL/well) with 1×TBST (CST #9997S). • The MSD plate was then blocked with 150 μL of blocking buffer [3% Blocker A (MSD, R93BA-4) in TBST]/well and shaken for 1 hr at RT and 600 rpm. • The MSD plate was washed 3× (150 μL/well) with 1×TBST. The sample RIPA lysates were then added to the MSD plate (50 μL/well) and shaken for 1 hr at RT and 600 rpm. • The MSD plate was washed 3× (150 μL/well) with 1×TBST and the primary detection antibody (Rabbit Anti-IRAK4 antibody [Y279], ab32511) was added to a final concentration of 1 μg/ml with 25 μL/well. The plate was then shaken for 1 hr at RT and 600 rpm. • The MSD plate was washed 3× (150 μL/well) with 1×TBST and the secondary detection antibody, SULFO-TAG anti-species antibody (Anti Rabbit Antibody (R32AB-5) MSD, R32AB-1) was added to a volume of 25 μL/well at a final concentration of 1 μg/ml. The plate was then shaken for 1 hr at RT and 600 rpm. • The MSD plate was then washed 3× (150 μL/well) with 1×TBST. • 1×MSD reading buffer was then added (150 μL/well) and the plate […].
(MSD, R92TC-2) • The MSD instrument was then read.
The remaining activity was calculated following the formula below:
• The DC50 was calculated by fitting the Curve using Xlfit (v5.3.1.3), equation 201: […]
The letter codes for IRAK4 DC50 indicate the concentration of compound required to degrade 50% of protein: A (<0.01 μM), B (0.01-0.1 μM), C (>0.1-0.2 μM), D (>0.2 μM).
For N#Cc1cnc2c(C(=O)Nc3ccc4nn([C@H]5CC[C@H](CN6CCC(c7cccn8c(N9CCC(=O)NC9=O)cnc78)CC6)CC5)cc4c3)cnn2c1 [I-65, 6-Cyano-N-[2-[4-[[4-[3-(2,4-dioxohexahydropyrimidin-1-yl)imidazo[1,2-a]pyridin-8-yl]-1-piperidyl]methyl]cyclohexyl]indazol-5-yl]pyrazolo[1,5-a]pyrimidine-3-carboxamide], the DC50 was 0.01 to 0.1 µM.
In the case of N#Cc1cc2nn([C@H]3CC[C@H](CN4CCC(c5ccn6c(N7CCC(=O)NC7=O)cnc6c5)CC4)CC3)cc2cc1NC(=O)c1cccc(C(F)(F)F)n1 [I-66], the DC50 is reported as < 0.01 µM.
For N#Cc1cc2nn([C@H]3CC[C@H](CN4CCC(c5cccn6c(N7CCC(=O)NC7=O)cnc56)CC4)CC3)cc2cc1NC(=O)c1cccc(C(F)(F)F)n1 [I-67], the DC50 was < 0.01 µM.
COc1cc2nn([C@H]3CC[C@H](CN4CCN(c5ccn6c(N7CCC(=O)NC7=O)cnc6c5)CC4)CC3)cc2cc1NC(=O)c1cccc(C(F)(F)F)n1 [I-68] was tested, and the DC50 was < 0.01 µM.
In the case of COc1cc2nn([C@H]3CC[C@H](CN4CCN(c5cccn6c(N7CCC(=O)NC7=O)cnc56)CC4)CC3)cc2cc1NC(=O)c1cccc(C(F)(F)F)n1 [I-69], the DC50 is reported as < 0.01 µM.
For O=C1CCN(c2cnc3cc(C#CCO[C@@H]4CCN(C[C@H]5CC[C@H](n6cc(NC(=O)c7cnn8ccc(N9C[C@H]%10C[C@@H]9CO%10)nc78)c(C(F)F)n6)CC5)C[C@@H]4F)ccn23)C(=O)N1 [I-70], the DC50 was < 0.01 µM.
For O=C1CCN(c2cnc3cc(C#CCO[C@H]4CCN(C[C@H]5CC[C@H](n6cc(NC(=O)c7cnn8ccc(N9C[C@H]%10C[C@@H]9CO%10)nc78)c(C(F)F)n6)CC5)C[C@H]4F)ccn23)C(=O)N1 [I-71], the DC50 was < 0.01 µM.
For N#Cc1cnc2c(C(=O)Nc3ccc4nn([C@H]5CC[C@H](CN6CCC(c7ccn8c(N9CCC(=O)NC9=O)cnc8c7)CC6)CC5)cc4c3)cnn2c1 [I-72], the DC50 was > 0.2 µM.
Work on CC(C)Nc1cc(-c2ccc3cc(C#N)cnn23)ncc1C(=O)N[C@H]1CC[C@H](CN2CCC(c3cccn4c(N5CCC(=O)NC5=O)cnc34)CC2)CC1 [I-73] yielded a DC50 of 0.01 to 0.1 µM.
CC(C)Nc1cc(-c2ccc3cc(C#N)cnn23)ncc1C(=O)N[C@H]1CC[C@H](CN2CCC(c3ccn4c(N5CCC(=O)NC5=O)cnc4c3)CC2)CC1 [I-74] showed a DC50 of 0.01 to 0.1 µM.
O=C1CCN(c2cnc3cc(C#CCN4CCN(C[C@H]5CC[C@H](n6cc(NC(=O)c7cnn8ccc(N9C[C@H]%10C[C@@H]9CO%10)nc78)c(C(F)F)n6)CC5)CC4)ccn23)C(=O)N1 [I-75] was tested, and the DC50 was < 0.01 µM.
Work on CC(C)Nc1cc(-n2ccc3cc(C#N)cnc32)ncc1C(=O)N[C@H]1CC[C@H](CN2CCC(c3cccn4c(N5CCC(=O)NC5=O)cnc34)CC2)CC1 [I-76] yielded a DC50 of 0.01 to 0.1 µM.
CC(C)Nc1cc(-n2ccc3cc(C#N)cnc32)ncc1C(=O)N[C@H]1CC[C@H](CN2CCC(c3ccn4c(N5CCC(=O)NC5=O)cnc4c3)CC2)CC1 [I-77] showed a DC50 of 0.01 to 0.1 µM.
Work on COc1cc2nc([C@H]3CC[C@H](CN4CCC(c5ccn6c(N7CCC(=O)NC7=O)cnc6c5)CC4)CC3)sc2cc1NC(=O)c1cccc(C(F)(F)F)n1 [I-78] yielded a DC50 of 0.01 to 0.1 µM.
In the case of COc1cc2nc([C@H]3CC[C@H](CN4CCC(c5cccn6c(N7CCC(=O)NC7=O)cnc56)CC4)CC3)sc2cc1NC(=O)c1cccc(C(F)(F)F)n1 [I-79], the DC50 is reported as < 0.01 µM.
COc1cc2nc([C@H]3CC[C@H](CN(C)C4CCN(c5ccn6c(N7CCC(=O)NC7=O)cnc6c5)CC4)CC3)sc2cc1NC(=O)c1cccc(C(F)(F)F)n1 [I-80] gave a DC50 of 0.01 to 0.1 µM.
Work on COc1cc2nn([C@H]3CC[C@H](CN4CCC(c5ccn6c(N7CCC(=O)NC7=O)cnc6c5)CC4)CC3)cc2cc1NC(=O)c1cc(F)cc(C(F)(F)F)c1 [I-81] yielded a DC50 of 0.01 to 0.1 µM.
COc1cc2nn([C@H]3CC[C@H](CN4CCC(c5cccn6c(N7CCC(=O)NC7=O)cnc56)CC4)CC3)cc2cc1NC(=O)c1cc(F)cc(C(F)(F)F)c1 [I-82] showed a DC50 of 0.01 to 0.1 µM.
COc1cc2nn([C@H]3CC[C@H](CN4CCC(c5cccn6c(N7CCC(=O)NC7=O)cnc56)CC4)CC3)cc2cc1NC(=O)c1cncc(C#N)c1 [I-83] gave a DC50 of 0.1 to 0.2 µM.
For COc1cc2nn([C@H]3CC[C@H](CN4CCC(c5ccn6c(N7CCC(=O)NC7=O)cnc6c5)CC4)CC3)cc2cc1NC(=O)c1cncc(C#N)c1 [I-84], the DC50 was > 0.2 µM.
